# Results from US5653961A, “Butixocort aerosol formulations in hydrofluorocarbon propellant” (Minnesota Mining and Manufacturing Company, priority 1995, dated 1997).
# Assay: Solubility of butixocort propionate in propellants and propellant/ethanol blends
# Assay type: physicochemical
# Experimental: Solubility of butixocort propionate in P134a, P227, and blends thereof with ethanol, was determined as follows: Drug and the selected propellant system were combined and agitated for a period of seven days at a selected temperature to afford a saturated solution. The solid was filtered off and the supernatant was weighed. The propellant was removed by evaporation and the drug was reconstituted quantitatively. The concentration of the drug in the reconstituted solution was determined and from this the mount and concentration of drug dissolved in the propellant system was calculated. TABLES 1 and 2 show the average of three independent determinations.
structure (smiles),measurement,setting,value
"CCCC(=O)O[C@]1(C(=O)CSC(=O)CC)CC[C@H]2[C@@H]3CCC4=CC(=O)CC[C@]4(C)[C@H]3[C@@H](O)C[C@@]21C [Butixocort propionate, 11-beta-hydroxypregn-4-ene-3,20-dione-21-thiopropionate-17-butyrate]",solubility in HFA 134a,"HFA 134a, 20° C.",about 0.02 % by weight
same,solubility in HFA 227,"HFA 227, 20° C.",about 0.03 % by weight
same,solubility at 168 h,"propellant 134a, 0% ethanol, organic solvent or mixture, 0 weight % ethanol, 20°C, Table 2, average of three determinations",300 µg/mL
same,solubility at 168 h,"propellant 134a, 1% ethanol, organic solvent or mixture, 1 weight % ethanol, 20°C, Table 2",751 µg/mL
same,solubility at 168 h,"propellant 134a, 2.5% ethanol, organic solvent or mixture, 2.5 weight % ethanol, 20°C, Table 2",1760 µg/mL
same,solubility at 168 h,"propellant 134a, 5% ethanol, organic solvent or mixture, 5 weight % ethanol, 20°C, Table 2",4180 µg/mL
same,solubility at 168 h,"propellant 134a, 7.5% ethanol, organic solvent or mixture, 7.5 weight % ethanol, 20°C, Table 2",6960 µg/mL
same,solubility at 168 h,"propellant 134a, 10% ethanol, organic solvent or mixture, 10 weight % ethanol, 20°C, Table 2",9630 µg/mL
same,solubility at 168 h,"propellant 134a, organic solvent or mixture, 4 °C, Table 1, average of three determinations",103 µg/mL
same,solubility at 168 h,"propellant 134a, organic solvent or mixture, 20 °C, Table 1, average of three determinations",203 µg/mL
same,solubility at 168 h,"propellant 134a, organic solvent or mixture, 30 °C, Table 1, average of three determinations",300 µg/mL
same,solubility at 168 h,"propellant 134a, organic solvent or mixture, 40 °C, Table 1, average of three determinations",319 µg/mL
same,solubility at 168 h,"propellant 227, 0% ethanol, organic solvent or mixture, Propellant 227, 0 weight % ethanol, 20°C, Table 2, average of three determinations",395 µg/mL
same,solubility at 168 h,"propellant 227, 1% ethanol, organic solvent or mixture, Propellant 227, 1 weight % ethanol, 20°C, Table 2",971 µg/mL
same,solubility at 168 h,"propellant 227, 2.5% ethanol, organic solvent or mixture, Propellant 227, 2.5 weight % ethanol, 20°C, Table 2",1110 µg/mL
same,solubility at 168 h,"propellant 227, 5% ethanol, organic solvent or mixture, Propellant 227, 5 weight % ethanol, 20°C, Table 2",3850 µg/mL
same,solubility at 168 h,"propellant 227, 7.5% ethanol, organic solvent or mixture, Propellant 227, 7.5 weight % ethanol, 20°C, Table 2",6200 µg/mL
same,solubility at 168 h,"propellant 227, 10% ethanol, organic solvent or mixture, Propellant 227, 10 weight % ethanol, 20°C, Table 2",8520 µg/mL
same,solubility at 168 h,"propellant 227, organic solvent or mixture, Propellant 227, 4 °C, Table 1, average of three determinations",261 µg/mL
same,solubility at 168 h,"propellant 227, organic solvent or mixture, Propellant 227, 20 °C, Table 1, average of three determinations",285 µg/mL
same,solubility at 168 h,"propellant 227, organic solvent or mixture, Propellant 227, 30 °C, Table 1, average of three determinations",306 µg/mL
same,solubility at 168 h,"propellant 227, organic solvent or mixture, Propellant 227, 40 °C, Table 1, average of three determinations",317 µg/mL
